Results as given in patent publication US11919880B2, “HCV protease inhibitors” (The Regents of the University of California, priority 2020, dated 2024).
Where “and” joins values, the source holds several entries; their conditions need not be identical. Identical values can stand only once. Like-named read-outs stand apart in the source and are kept apart here.

Legend:
[1] = target: T1, full-length HCV NS3/4A GT1b D168A (Hepatitis C virus genotype 1b, UniProt Q9WMX2, D1194A); assay: biochemical; format: biochemical
T1 construct: full-length HCV NS3/4A GT1b D168A; His tag; made in house; host or cells: E. coli Rosetta 2(DE3)
Description: (§1) In order to validate that this group of molecules elicit their cellular effects via inhibition of the viral protease, we incubated compounds 1, 12 and 22 with recombinant NS3/4A protease GT1b and an inhibitor-resistant mutant containing a D168A mutation. D168 is located in the S2 and S4 sub-pockets and mutations in these sub-pockets can cause significant resistance to the inhibitors resulting in decreased activity of peptidomimetic inhibitors^21,37-38. […] As a control, potency was evaluated using the approved HCV protease inhibitor, simeprevir.
(§2) Plasmid construction and purification of HCV NS3/A protein. Drug resistant mutant D168A was generated by mutagenesis using NS3-containing recombinant plasmid (pETDuet-1 Hepatis C Virus NS3/4A, a gift from Michael Johnson, Addgene plasmid #16196) as a template. The single mutation of aspartic acid (D) to alanine (A) was introduced by mutagenesis at position 168 using specific primers (Forward: 5′-[…]-3′ and Reverse: 5′-[…]-3′). The over expression and purification were preformed followed the method that previously described^43. Rosetta 2(DE3) cells (Novagen) containing the modified recombinant plasmid with histidine tag were grown in Lysogeny Broth medium. The over expression was introduced by addition of Isopropyl β-D-1-thiogalactopyranoside (IPTG) to the final concentration of 0.5 mM and the bacteria were incubated at room temperature for 16 h. […] The solution was passed through Ni-NTA column and washed by buffer B (50 mM HEPES, pH 7.6, 500 mM NaCl, 50 mM imidazole, 5 mM β-MCE, 0.2% Triton X-100, and 15% glycerol). The His-tag fused protein was eluted by buffer C (50 mM HEPES, pH 7.6, 500 mM of NaCl, 500 mM of imidazole, 5 mM β-MCE, 0.2% Triton X-100, and 15% glycerol) followed by dialysis using buffer (50 mM HEPES, pH 7.6 and 500 mM of NaCl). Purified NS3/4A protein was concentrated an d buffer exchanged into buffer D (50 mM HEPES, pH 7.6, 500 mM of NaCl, 5 mM β-MCE, 0.2% Triton X-100, and 50% glycerol) using a protein concentrator 10 k (Amicon®).
(§3) HCV NS3/4A enzymatic inhibition assay. The activities of two proteases (recombinant HCV NS3/4A GT1b WT and full-length HCV NS3/4A GT1b D168A) were measured using a fluorogenic substrate, Ac-Glu-Glu-Val-Val-Ala-Cys-AMC (Sigma-Aldrich) where AMC corresponds to 7-amino-4-methylcourmarin. Assays were performed in 50 mM HEPES pH 7.4, 15 mM NaCl, 0.01% Triton X-100, 10 mM DTT in a black 384-well microplate (BD Falcon). […] Fluorescence was monitored at excitation and emission wavelengths of 360 nm and 460 nm in a Synergy™ HTX Multi-Mode Microplate Reader (BioTek). Data was visualized using Gen5™ Software (Biotek). The activity of enzyme was calculated from the change in relative fluorescence units (RFU) over time. For inhibition assays, compounds were pre-incubated with enzyme for 240 minutes prior to adding the enzyme/inhibitor mixture to the substrate. All assays were performed in triplicate wells.

[2] = system: full-length HCV NS3/4A GT1b D168A; assay: biochemical; format: biochemical, hepatitis C virus; conditions: for IC50—D168A/IC50—wt ratio: D168A mutant versus wt protease
Description: as §1, §2, §3

[3] = target: T2, recombinant HCV NS3/4A GT1b WT (Hepatitis C virus genotype 1b, UniProt Q9WMX2); assay: biochemical; format: biochemical
T2 construct: recombinant HCV NS3/4A GT1b WT
Description: as §1, §3

[4] = system: sub-genomic HCV GT1b replicon (BM4-5 FEO), GT1b WT; assay: HCV replicon assay (luciferase antiviral efficacy); format: cell-based, hepatitis C virus; conditions: BM4-5 FEO cells, 48 h, read-out: EC50 ± SD Gt 1b wt
Description: (§4) The 20 compounds from class C were tested […] for inhibition of viral replication (GT1b wild-type) in BM4-5 FEO cells and for mammalian cell cytotoxicity. The numbers of virus particles were evaluated by quantifying luciferase produced during the virus life cycle^41 while toxicity was evaluated using a cell viability assay. […] Prior to additional biochemical studies, several key chemical properties for each of the Class C molecules were determined.
Replicon construct. The BM4-5 replicon is a sub-genomic HCV GT1b replicon that contains adaptive mutation of serine in the NS5A region^41. The firefly luciferase gene was added into the BM4-5 replicon to generate BM4-5 FEO replicon. The construction procedures have been previously described^42.
(§5) Luciferase antiviral efficacy and cells viability assays. BM4-5 FEO replicon approximately 10,000 cells in 100 μL of medium were seeded into 96-well plates and incubate for 6 h for attachment. Then, the compounds were added at to the wells in specific concentration and incubate for 48 h. The luciferase assay (Bright-Glo; Promega) was carried out according to the manufacturer's instructions. Luciferase activity was determined using a microplate luminometer (Veritas microplate luminometer; Turner Biosystems). For cells viability assays, BM4-5 FEO at the density 10,000 cells in 100 μL medium was incubated at 37° C. for 6 h for attachment, then the compounds were added and incubated for another 48 hours. The number of living cells were measured by Cell Titer-blue assay (Promega). The fluorescence absorption (560Ex/590Em) for 96-well plate was read by Benchmark Scientific MR9600 with. The activity and toxicity of each compound were measured by at least six different concentrations in triplicate.

BM4-5 human liver cells = assay: CellTiter-Blue cell viability assay; format: cell-based; conditions: BM4-5 FEO cells, 48 h, read-out: LC50 ± SD
Description: as §4, with “determined. Calculated polar surface area (PSA), lipophilicity (LogP), and molecular weight for each compound (Table IA) complied with the general criteria for drug-like molecules.” for “determined.”
as §5

proteinase K = proteinase K (Parengyodontium album, UniProt P06873); assay: Counter-screening assay, proteinase K; format: biochemical, fungal; conditions: 13.08 and 14.68, 5.2 μM of 1, 12, and 22, respectively; 40 nM enzyme
Description: (§6) In addition, we tested these compounds for inhibition against the fungal serine protease, proteinase K that is structurally related to several mammalian serine proteases such as the proprotein convertase enzymes and furin^44.
(§7) Counter-screening assay. Counter-screening assays were performed with 40 nM of bovine trypsin (Sigma), pig pancreatic elastase (Sigma), human chymotrypsin and proteinase k and 60 μM of the appropriate fluorogenic substrates for trypsin, elastase, chymotrypsin, and proteinase K are Boc-Leu-Arg-Arg-AMC (trypsin), Me-Arg-Arg-Pro-Val-AMC (elastase) and Suc-Arg-Arg-Pro-Phe-AMC (chymotrypsin and proteinase K). Assays were performed in 50 mM HEPES pH 7.4, 15 mM NaCl, 0.01% Triton X-100 in black 96-well microplates (BD Falcon) at a final volume of 50 μL. The final concentration of DMSO in each well was 2.5%. Fluorescence was measured as outlined above.

[5] = Potentiometric titration, Sirius T3 instrument; format: physicochemical
Source text: As highlighted in Scheme 1, the tryptophan derived HCV NS3/4 protease inhibitors, 21 and 22, were synthesized starting from 3-(piperidine-1-yl)propan-1-amine (23), which could be accessed in two steps from commercially available N-(bromopropyl)phthalimide and piperidine, and N-Boc protected L-tryptophan (24). Thus, HBTU mediated coupling of […] and 24, followed by N-Boc deprotection and carbamoylation reaction with the appropriate isocyanate provided the desired compounds. 21 and 22. These test compounds were characterized by ^1H-NMR, ^13C-NMR, and HRMS. In addition, experimental pKa values, lipophilicity (LogP), and LogD7.4 of 22 were determined via potentiometric titrations using a Sirius T3 instrument. Compounds 21 and 22, as well as the 20 compounds from the primary screen, were then tested in cell-based assays to evaluate activity against HCV and toxicity to the host cells (Table 2).

pig pancreatic elastase = target: T3, pig pancreatic elastase (Sus scrofa, UniProt P00772); assay: Counter-screening assay, elastase; format: biochemical; conditions: 13.08 and 14.68, 5.2 μM of 1, 12, and 22, respectively; 40 nM enzyme
T3 construct: purchased Sigma
Description: as §6, §7

bovine trypsin = target: T4, bovine trypsin (Bos taurus, UniProt P00760); assay: Counter-screening assay, trypsin; format: biochemical; conditions: 13.08 and 14.68, 5.2 μM of 1, 12, and 22, respectively; 40 nM enzyme
T4 construct: purchased Sigma
Description: as §6, §7

human chymotrypsin = human chymotrypsin (Homo sapiens, UniProt P17538); assay: Counter-screening assay, chymotrypsin; format: biochemical; conditions: 13.08 and 14.68, 5.2 μM of 1, 12, and 22, respectively; 40 nM enzyme
Description: as §6, §7

[6] = 40 nM enzyme, 60 μM Ac-Glu-Glu-Val-Val-Ala-Cys-AMC, 240 min pre-incubation, read-out: IC50 GT1b D168A
[7] = 40 nM enzyme, 60 μM Ac-Glu-Glu-Val-Val-Ala-Cys-AMC, 240 min pre-incubation, read-out: IC50 GT1b WT

T1 sequence (Q9WMX2 1027-1657, looked up, stated change not applied): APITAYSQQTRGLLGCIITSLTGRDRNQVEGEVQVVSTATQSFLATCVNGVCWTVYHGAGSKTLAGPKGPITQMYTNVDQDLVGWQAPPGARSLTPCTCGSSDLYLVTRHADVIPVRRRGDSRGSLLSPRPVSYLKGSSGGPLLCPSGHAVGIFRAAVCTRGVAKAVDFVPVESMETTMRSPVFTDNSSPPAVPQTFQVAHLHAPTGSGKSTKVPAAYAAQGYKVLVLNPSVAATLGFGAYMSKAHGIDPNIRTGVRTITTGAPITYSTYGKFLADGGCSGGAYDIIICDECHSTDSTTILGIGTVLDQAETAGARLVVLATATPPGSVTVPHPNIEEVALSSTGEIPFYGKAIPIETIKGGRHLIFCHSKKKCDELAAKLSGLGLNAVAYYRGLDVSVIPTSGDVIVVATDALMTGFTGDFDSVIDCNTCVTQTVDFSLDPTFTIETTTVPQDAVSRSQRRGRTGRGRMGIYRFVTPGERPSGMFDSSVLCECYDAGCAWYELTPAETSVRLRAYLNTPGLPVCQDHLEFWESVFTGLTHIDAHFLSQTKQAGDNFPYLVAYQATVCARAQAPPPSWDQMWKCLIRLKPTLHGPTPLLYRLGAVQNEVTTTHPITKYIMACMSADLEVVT
T1 sequence (Q9WMX2 1658-1711, stated change not applied): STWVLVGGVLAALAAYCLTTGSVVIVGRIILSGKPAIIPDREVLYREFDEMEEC
T2 sequence (Q9WMX2 1658-1711): as the sequence (Q9WMX2 1658-1711, stated change not applied) above
T2 sequence (Q9WMX2 1027-1657): as the sequence (Q9WMX2 1027-1657, looked up, stated change not applied) above
proteinase K, sequence (P06873 106-384): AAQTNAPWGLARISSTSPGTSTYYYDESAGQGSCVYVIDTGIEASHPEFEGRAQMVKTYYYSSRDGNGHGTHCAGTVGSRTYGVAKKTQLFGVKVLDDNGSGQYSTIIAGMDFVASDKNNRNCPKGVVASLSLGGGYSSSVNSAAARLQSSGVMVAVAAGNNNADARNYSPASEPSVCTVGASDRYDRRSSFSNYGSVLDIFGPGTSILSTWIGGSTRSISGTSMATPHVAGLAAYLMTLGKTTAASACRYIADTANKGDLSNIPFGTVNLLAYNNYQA
T3 sequence (P00772 27-266): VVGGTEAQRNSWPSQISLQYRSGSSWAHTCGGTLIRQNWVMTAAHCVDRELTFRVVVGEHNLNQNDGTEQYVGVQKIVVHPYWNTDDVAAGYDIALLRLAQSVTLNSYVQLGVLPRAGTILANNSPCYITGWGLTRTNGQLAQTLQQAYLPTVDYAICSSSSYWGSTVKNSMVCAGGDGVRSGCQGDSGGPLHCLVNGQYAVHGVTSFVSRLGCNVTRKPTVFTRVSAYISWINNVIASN
human chymotrypsin, sequence (P17538 19-263): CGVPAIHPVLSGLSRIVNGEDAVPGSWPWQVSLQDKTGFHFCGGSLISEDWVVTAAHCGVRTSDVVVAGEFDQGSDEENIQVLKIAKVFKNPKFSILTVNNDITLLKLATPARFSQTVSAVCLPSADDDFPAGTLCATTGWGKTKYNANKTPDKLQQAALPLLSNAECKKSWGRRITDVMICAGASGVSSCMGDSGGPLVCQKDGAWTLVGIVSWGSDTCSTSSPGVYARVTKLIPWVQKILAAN
T4 sequence (P00760 24-246): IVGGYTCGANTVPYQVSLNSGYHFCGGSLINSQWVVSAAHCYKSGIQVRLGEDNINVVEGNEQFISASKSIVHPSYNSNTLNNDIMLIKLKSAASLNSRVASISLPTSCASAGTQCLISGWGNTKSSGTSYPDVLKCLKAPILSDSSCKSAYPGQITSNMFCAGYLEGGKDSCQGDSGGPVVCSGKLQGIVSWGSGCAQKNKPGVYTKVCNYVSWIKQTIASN

Compound	EC50 [4] [µM]	CC50 (BM4-5 human liver cells) [µM]	further results
COc1ccc2c(O[C@@H]3C[C@H]4C(=O)N[C@]5(C(=O)NS(=O)(=O)C6CC6)C[C@H]5/C=C\CCCCN(C)C(=O)[C@@H]4C3)cc(-c3nc(C(C)C)cs3)nc2c1C [Simeprevir, reference compound]	–	–	IC50 [1, 6]: 0.247 ± 0.39 µM; IC50—D168A/IC50—wt ratio [2]: 5.7; IC50 [3, 7]: 0.043 µM
COc1ccc(OC)c(NC(=O)NC(Cc2c[nH]c3ccccc23)C(=O)NCCCN2CCCCC2C)c1 (centres unmarked) [Compound 9]	51.4 ± 15.2	> 100	–
COc1ccc2[nH]cc(CC(NC(=O)Nc3cc(Cl)ccc3Cl)C(=O)NCCCN3CCCCC3C)c2c1 (centres unmarked) [Compound 10]	33.2 ± 3.17	> 100	–
CC1CCCCN1CCCNC(=O)C(Cc1c[nH]c2ccc(F)cc12)NC(=O)Nc1cc(Cl)ccc1Cl (centres unmarked) [Compound 2]	6.12 ± 2.3	–	–
CC1CCCC(C)N1NCCCNC(=O)C(Cc1c[nH]c2ccccc12)NC(=O)Nc1ccccc1Br (centres unmarked) [Compound 14]	5.15 ± 0.63	–	–
O=C(Nc1ccccc1Br)NC(Cc1c[nH]c2ccccc12)C(=O)NCCCNC1CCCCC1O (centres unmarked) [Compound 18]	4.58 ± 0.32	–	–
O=C(Nc1ccccc1Br)NC(Cc1c[nH]c2ccccc12)C(=O)NCCCNC1CC2CCC1C2 (centres unmarked) [Compound 11]	5.99 ± 2.61	–	–
CC1CCCCN1CCCNC(=O)C(Cc1c[nH]c2ccccc12)NC(=O)Nc1ccc(N(C)C)cc1 (centres unmarked) [Compound 6]	63.4 ± 11	> 100	–
CC1CCCCN1CCCNC(=O)C(Cc1c[nH]c2ccccc12)NC(=O)Nc1c(F)cc(Br)cc1F (centres unmarked) [Compound 13]	35.4 ± 7.71	–	–
CC(=O)c1cccc(NC(=O)NC(Cc2c[nH]c3ccccc23)C(=O)NCCCN2CCCCC2C)c1 (centres unmarked) [Compound 8]	10.9 ± 4.93	> 100	–
CC(C)c1ccc(NC(=O)N[C@@H](Cc2c[nH]c3ccccc23)C(=O)NCCCN2CCCCC2)cc1 [Compound 22]	0.64 ± 0.13	47 ± 6.98	IC50 [1, 6]: 5.98 ± 0.43 µM; IC50—D168A/IC50—wt ratio [2]: 1.4; Change in potency, D168A mutant versus wt protease ([2]; result in words): no significant reduction on potency; Decrease of proteinase K activity (proteinase K): did not decrease activity; IC50 [3, 7]: 5.2 µM and 4.6 µM; Potency lower than simeprevir ([3]; wt protease IC50 compared with simeprevir): 120 fold; Experiment value of logP [5]: 4.1; Decrease of elastase activity (pig pancreatic elastase): did not decrease activity; Decrease of trypsin activity (bovine trypsin): did not decrease activity; Decrease of chymotrypsin activity (human chymotrypsin): did not decrease activity
CCOC(=O)C1CCCCN1CCCNC(=O)C(Cc1c[nH]c2ccccc12)NC(=O)Nc1ccccc1Br (centres unmarked) [Compound 17]	2.98 ± 1.08	–	–
O=C(Nc1ccccc1Br)NC(Cc1c[nH]c2ccccc12)C(=O)NCCCNC1CCC(O)CC1 (centres unmarked) [Compound 19]	32.6 ± 14.8	> 100	–
Cc1ccc2[nH]cc(CC(NC(=O)Nc3cc(Cl)ccc3Cl)C(=O)NCCCN3CCCCC3C)c2c1 (centres unmarked) [Compound 7]	6.35 ± 1.11	–	–
C[C@H]1CCCCN1CCCNC(=O)C(Cc1c[nH]c2ccccc12)NC(=O)Nc1cccc(Br)c1 (some centres unmarked) [Compound 1]	–	–	EC50 ([4]; Hepatitis C virus, GT1B): 0.95 ± 0.26 µM; IC50 [1]: 11.4 ± 0.45 µM; IC50 [3]: 14.7 ± 1.23 µM
CC(C)c1ccc(NC(=O)NC(Cc2c[nH]c3ccccc23)C(=O)NCCCN2CCCC[C@@H]2C)cc1 (some centres unmarked) [Compound 12]	–	–	EC50 ([4]; Hepatitis C virus, GT1B): 1.5 ± 0.07 µM; IC50 [1]: 11.5 ± 0.55 µM; IC50 [3]: 13.1 ± 2.77 µM
O=C(Nc1cccc(Br)c1)N[C@@H](Cc1c[nH]c2ccccc12)C(=O)NCCCN1CCCCC1 [Compound 21]	1.3 ± 1.25	29.5 ± 1.48	–
O=C(Nc1cccc(Br)c1)NC(Cc1c[nH]c2ccccc12)C(=O)NCCCNC1CCCCCC1 (centres unmarked) [Compound 15]	6.82 ± 0.74	–	–
